What was measured:
IL-6 [1] = assay: IL-6 production in IL-1β-stimulated Caco-2 cells (ELISA); format: cell-based; conditions: IL-1β 10 ng/mL, 24 h
Experimental: (§1) Caco-2 cells were seeded in 48-well plates and cultured as described above. […] Prior to application, HLE was dissolved in DMSO and sterilely transferred into fresh serum-free medium. To remove high-molecular-weight pyrogens, the extract was subjected to a two-step ultrafiltration using a Microsep™ Advance Centrifugal Device with 30 kDa and 100 kDa cut-offs (Pall Corporation, Port Washington, NY, USA), as described in Kruk et al.. After ultrafiltration, 10% FBS was added to the medium. Following a one-hour pre-incubation, IL-1β was added to each well to achieve a final concentration of 10 ng/mL. After 24 h of incubation, the supernatants were collected, and IL-6 and IL-8 concentrations were determined using the sandwich ELISA method (BD Biosciences Pharmingen).

Caco-2 monolayers [2] = assay: Transport and metabolism of HLE constituents through Caco-2 monolayers; format: in vitro ADME; conditions: apical to basolateral, 24 h incubation of HLE with Caco-2, based on the peak area ratio
Experimental: Caco-2 cells were seeded and cultivated as described for the TEER measurements. After 21 days of cultivation, HLE solutions at concentrations of 12.5–100 µg/mL (prepared as for the cell viability assay) were added to the apical compartment. As a non-treated control, medium containing 0.5% DMSO was used. Supernatants from both the apical and basolateral compartments were collected at 0 h and 24 h for chromatographic analysis.
Analyses were performed using a Vanquish UHPLC system coupled with an Exploris 120 Orbitrap mass spectrometer (Thermo Scientific, Bremen, Germany) equipped with a Kinetex XB-C18 column (150 × 2.1 mm, 1.7 µm). Mobile phases consisted of (A) water and (B) acetonitrile:water (4:1, v/v), both containing 0.1% HCOOH and 5 mM NH4HCOO. […] Electrospray settings: spray voltage 3.5 kV (+)/2 kV (−); sheath/aux/sweep gas 48/11/2 Arb; ion transfer tube 320 °C; vaporizer 280 °C. Data were acquired in full-scan mode (resolution 120,000, polarity switching). MS2 spectra were obtained using stepped NCE 30/50% (resolution 15,000) and ddMS2 settings of four fragmentation scans per full scan, single-charge filter, isotope and dynamic exclusion enabled. Experimental samples were analyzed with and without fragmentation exclusion lists generated from control samples to enhance MS2 coverage. Data processing was performed in Compound Discoverer 3.4 (Thermo Scientific, Austin, TX, USA). Signals corresponding to hop extract constituents were identified based on comparison of donor compartment solution and method blank. Similarity analysis and molecular networking (mzMine 4.6) were based on shared fragments or constant m/z shifts.

IL-6 [3] = assay: Caco-2 inflammatory model selection, IL-6 production (ELISA); format: cell-based; conditions: IL-1β 25 and 12.5 ng/mL, 24 h
Experimental: (§2) Cells were seeded in 48-well plates and cultured as described above. After reaching 100% confluence, they were stimulated with different concentrations and combinations of the following factors: TNF-α (1, 12.5, 25 ng/mL), LPS from E. coli (1, 5, 10 µg/mL), IFN-γ (1, 10, 50 ng/mL), a mixture of IFN-γ and TNF-α (1 + 1, 10 + 10, 50 + 50 ng/mL), and IL-1β (0.01, 0.02, 0.04, 0.08, 1, 12.5, 25 ng/mL). […] After 24 h of incubation, the supernatants were collected, and IL-6 and IL-8 concentrations were determined using the sandwich ELISA method (BD Biosciences Pharmingen, San Diego, CA, USA).

Caco-2 monolayers [4] = test system: Caco-2 monolayers; set-up: method as in Van de Walle et al. [20]; conditions: IL-1β 25 ng/mL, Caco-2 cell monolayers; ref Van de Walle et al. [20]; cited from earlier work
Caco-2 monolayers [5] = assay: TEER measurement of Caco-2 monolayer; format: cell-based; conditions: for TEER: IL-1β control
Experimental: Caco-2 cells were cultivated in 6-well plates on a Transwell transparent insert (Greiner Bio-One, Kremsmünster, Austria) with density of 6 × 10^5 cells/insert for 21 days. (37 °C, 5% CO2) Medium that was used contained the earlier mentioned ingredients. Three mL of medium was added to the apical compartment, and 3.5 mL was added to the basolateral compartment. The medium was replaced three times per week. CellZscope systems for 24-well and 6-well formats (nanoAnalytics GmbH, Münster, Germany) were used to analyze the TEER. Solutions were made as described in Section 4.5 with concentrations 12.5–100 µg/mL. As non-treated control, medium containing 0.5% DMSO was used. The medium in the apical compartment was replaced with the HLE solutions or control. After a 24-h incubation period 25 ng/mL of IL-1β was added in basolateral compartment.

IL-8 [6] = assay: Caco-2 inflammatory model selection, IL-8 production (ELISA); format: cell-based; conditions: 24 h
Experimental: as §2

IL-8 [7] = assay: IL-8 production in IL-1β-stimulated Caco-2 cells (ELISA); format: cell-based; conditions: IL-1β-stimulated control, IL-1β 10 ng/mL, 24 h
Experimental: as §1

Row | Molecule | Transport Efficiency (%) (Caco-2 monolayers [2]) | further results
1 | C[C@@H]1C[C@H]2[C@@H]3CCC4=CC(=O)C=C[C@]4(C)[C@@]3(F)[C@@H](O)C[C@]2(C)[C@@]1(O)C(=O)CO [Dexamethasone, reference compound] | – | IL-6 level (IL-6 [1]; dexamethasone 20 µM (positive control), compared with the IL-1β-stimulated control): 3.7 ± 0.3%
2 | CC(C)=CCC(=O)[C@@]1(O)C(=O)C(C(=O)C(C)C)=C(O)[C@@]1(O)CC=C(C)C [Peak M10, cohumulinone] | 9 | –
3 | COc1cc(O)c(CC=C(C)C)c(O)c1C(=O)/C=C/c1ccc(O)cc1 [Peak M13, xanthohumol] | 3.5 | –
4 | CC(C)=CCC1=C(O)C(O)(CC=C(C)C)C(=O)C(C(=O)C(C)C)=C1O (stereo not drawn) [Peak M14, cohumulone] | 9.5 | –
5 | CC(C)=CCC1=C(O)C(O)(CC=C(C)C)C(=O)C(C(=O)CCC(C)C)=C1O (stereo not drawn) [Peak M17, prehumulone] | 4.3 | –
6 | IL-1β: pro-inflammatory cytokine used as inflammatory trigger | – | IL-6 secretion versus non-treated control (IL-6 [3]): increase IL-6 at concentrations of 25 and 12.5 ng/mL significantly; TEER reduction (Caco-2 monolayers [4]): approximately 20 ± 4%; TEER (Caco-2 monolayers [5]; 33 h): 83.97 ± 4.20%; TEER (Caco-2 monolayers [5]; 42 h): 84.25 ± 1.33%; TEER value decrease (Caco-2 monolayers [5]; after 24 h of exposure to 25 ng/mL IL-1β): 16 ± 1%; IL-8 secretion versus non-treated control (IL-8 [6]; IL-1β 25, 12.5, 1, 0.08 and 0.04 ng/mL): significantly increased IL-8 secretion; IL-6 level (IL-6 [1]; IL-1β-stimulated control): 103.3 ± 1.7%; IL-8 level (IL-8 [7]): 100.8 ± 5.5%
7 | TNF-α | – | IL-8 secretion versus non-treated control (IL-8 [6]; TNF-α 25 and 12.5 ng/mL): significantly increased IL-8 secretion
8 | hulupone/adhulupone [Peak M4] | 3.7 | –
9 | hydroxy-n-humulinone/hydroxyadhumolinone [Peak M11] | 17.4 | –
10 | n-humulinone/adhumulinone isomer 1 [Peak M7] | 6.9 | –
11 | n-humulinone/adhumulinone isomer 2 [Peak M12] | 11.7 | –
12 | n-humulone/adhumulone isomer 1 [Peak M15] | 8 | –
13 | n-humulone/adhumulone isomer 2 [Peak M16] | 9.6 | –
14 | tetrahydro-iso-α-acid [Peak M6] | 2 | –

Reference: PMC12608245, “Integrated Molecular and Functional Analysis of Hop Ethanolic Extract in Caco-2 Cells: Insights into Inflammation, Barrier Function, and Transport” (International Journal of Molecular Sciences, 2025)
